Active and inactive are the calls of the source. The calls are words filed in the database; no cut-off is given here.

The values that follow come from ChEMBL document CHEMBL4619721, “Design, synthesis & biological evaluation of ferulic acid-based small molecule inhibitors against tumor-associated carbonic anhydrase IX” (Bioorg Med Chem, 2020).

The target in series [1] is T1, Carbonic anhydrase 9 (Homo sapiens, UniProt Q16790).
Description: Inhibition of human carbonic anhydrase 9 using p-nitrophenyl acetate as substrate by UV-VIS spectrophotometric analysis
Series [2] has as its target Albumin (Homo sapiens, UniProt P02768). As to the kind of experiment: Binding affinity to human serum albumin assessed as decrease in emission intensity by fluorescence emission spectrum based Stern-Volmer method. Type of series: ADME. The settings on record: isolated protein.
Series [3] deals with HT-29. Briefly: Induction of apoptosis in human HT-29 cells assessed as late apoptotic cells at IC50 concentration after 24 hrs by Annexin V-FITC/propidium iodide staining based flow cytometry (reference value: 0.089%). In kind it is functional. A general note: In flow cytometry, cells or beads pass a laser one at a time.
In series [4] the test system is HepG2. As to the kind of experiment: Effect on ephithelial-mesenchymal transition in human HepG2 cells assessed as decrease in slug expression at IC50 concentration after 48 hrs by immunoblotting analysis. Type of series: functional, cell-based. (In general: Immunoblotting shows a protein as a band on a membrane.)
Series [5] concerns HepG2. As to the kind of experiment: Induction of apoptosis in human HepG2 cells at 11.22 uM after 24 hrs by Annexin V-FITC/propidium iodide staining based flow cytometry relative to control. In kind it is functional.
The test system of series [6] is HepG2. Briefly: Effect on ephithelial-mesenchymal transition in human HepG2 cells assessed as decrease in snail expression at IC50 concentration after 48 hrs by immunoblotting analysis. In kind it is functional, cell-based.
Series [7] relates to HT-29. Briefly: Effect on ephithelial-mesenchymal transition in human HT-29 cells assessed as decrease in slug expression at IC50 concentration after 48 hrs by immunoblotting analysis. In kind it is functional, cell-based.
In series [8] the test system is HepG2. As to the kind of experiment: Antimigratory activity against human HepG2 cells assessed as inhibition of cell migration at IC50 concentration after 24 hrs by crystal violet staining microscopy based transwell migration assay. Type of series: functional.
The test system of series [9] is HT-29. Briefly: Down regulation of carbonic anhydrase 9 protein expression in human HT-29 cells by immunoblotting analysis. Type of series: functional, cell-based.
For series [10], the system named is HT-29. Briefly: Inhibition of colony formation in human HT-29 cells at IC50 concentration after 10 days by crystal violet staining based colony formation assay. Type of series: functional, cell-based.
Series [11] concerns the target Carbonic anhydrase 2 (Homo sapiens, UniProt P00918). Briefly: Inhibition of human carbonic anhydrase 2 using p-nitrophenyl acetate as substrate by UV-VIS spectrophotometric analysis.
The subject of series [12] is HEK293. As to the kind of experiment: Cytotoxicity against HEK293 cells assessed as reduction in cell viability measured after 48 or 72 hrs by MTT assay. In kind it is cell-based. The settings on record: human, hek293, 72 h. In general terms: Tetrazolium dyes change colour on reduction, which living cells bring about.
Series [13] deals with HT-29. Briefly: Cytotoxicity against human HT-29 cells assessed as reduction in cell viability after 48 hrs by MTT assay. Type of series: functional, cell-based. The settings on record: HT-29, 48 h.
The test system of series [14] is HepG2. Briefly: Induction of apoptosis in human HepG2 cells assessed as late apoptotic cells at IC50 concentration after 24 hrs by Annexin V-FITC/propidium iodide staining-based flow cytometric analysis (reference value: 0%). In kind it is functional.
Series [15] relates to HepG2. As to the kind of experiment: Induction of apoptosis in human HepG2 cells assessed as increase in cleaved PARP expression at IC50 concentration after 48 hrs by immunoblotting analysis. Type of series: functional, cell-based.
For series [16], the system named is HT-29. Briefly: Effect on ephithelial-mesenchymal transition in human HT-29 cells assessed as decrease in Zeb1 expression at IC50 concentration after 48 hrs by immunoblotting analysis. Type of series: functional, cell-based.
The target of series [17] is Carbonic anhydrase 5A, mitochondrial (Homo sapiens, UniProt P35218). Briefly: Inhibition of human carbonic anhydrase 5A using p-nitrophenyl acetate as substrate by UV-VIS spectrophotometric analysis.
Sequence of Carbonic anhydrase 5A, mitochondrial (P35218 whole entry): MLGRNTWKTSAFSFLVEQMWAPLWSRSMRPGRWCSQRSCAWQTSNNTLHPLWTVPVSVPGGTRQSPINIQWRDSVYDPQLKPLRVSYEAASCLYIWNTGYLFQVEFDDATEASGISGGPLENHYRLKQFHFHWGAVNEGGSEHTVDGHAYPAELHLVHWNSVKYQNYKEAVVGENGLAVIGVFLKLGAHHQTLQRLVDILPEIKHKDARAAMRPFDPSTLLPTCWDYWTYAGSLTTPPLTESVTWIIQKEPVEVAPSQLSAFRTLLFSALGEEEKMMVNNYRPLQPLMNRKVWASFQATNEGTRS
In series [18] the test system is HT-29. Briefly: Induction of apoptosis in human HT-29 cells assessed as early apoptotic cells at IC50 concentration after 24 hrs by Annexin V-FITC/propidium iodide staining based flow cytometry (reference value: 0.73%). In kind it is functional.
For series [19], the system named is HepG2. As to the kind of experiment: Inhibition of colony formation in human HepG2 cells at IC50 concentration after 10 days by crystal violet staining based colony formation assay. In kind it is functional, cell-based.
The test system of series [20] is HT-29. As to the kind of experiment: Induction of apoptosis in human HT-29 cells assessed as necrotic cells at IC50 concentration after 24 hrs by Annexin V-FITC/propidium iodide staining based flow cytometry (reference value: 0.68%). In kind it is functional.
The test system of series [21] is HT-29. Briefly: Effect on ephithelial-mesenchymal transition in human HT-29 cells assessed as increase in E-cadherin expression at IC50 concentration after 48 hrs by immunoblotting analysis. In kind it is functional, cell-based.
In series [22] the test system is HT-29. As to the kind of experiment: Antimigratory activity against human HT-29 cells assessed as inhibition of cell migration at IC50 concentration after 24 hrs by crystal violet staining microscopy based transwell migration assay. Type of series: functional.
Series [23] deals with T1, Carbonic anhydrase 9. As to the kind of experiment: Binding affinity to human carbonic anhydrase 9 assessed as dissociation constant by isothermal titration calorimetric assay.
The test system of series [24] is HT-29. As to the kind of experiment: Down regulation of HIF1-alpha protein expression in human HT-29 cells by immunoblotting analysis. In kind it is functional, cell-based.
Series [25] concerns HT-29. As to the kind of experiment: Down regulation of carbonic anhydrase 9 mRNA expression in human HT-29 cells by RT-PCR analysis. Type of series: functional, cell-based.
For series [26], the system named is HepG2. As to the kind of experiment: Effect on ephithelial-mesenchymal transition in human HepG2 cells assessed as increase in E-cadherin expression at IC50 concentration after 48 hrs by immunoblotting analysis. Type of series: functional, cell-based.
Series [27] has as its system HT-29. Briefly: Induction of apoptosis in human HT-29 cells at 8.44 uM after 24 hrs by Annexin V-FITC/propidium iodide staining based flow cytometry relative to control. In kind it is functional.
The test system of series [28] is HT-29. Briefly: Effect on ephithelial-mesenchymal transition in human HT-29 cells assessed as decrease in snail expression at IC50 concentration after 48 hrs by immunoblotting analysis. Type of series: functional, cell-based.
Series [29] deals with HepG2. As to the kind of experiment: Effect on ephithelial-mesenchymal transition in human HepG2 cells assessed as decrease in Zeb1 expression at IC50 concentration after 48 hrs by immunoblotting analysis. In kind it is functional, cell-based.
Series [30] has as its system HT-29. Briefly: Induction of apoptosis in human HT-29 cells assessed as viable cells at IC50 concentration after 24 hrs by Annexin V-FITC/propidium iodide staining based flow cytometry (reference value: 98.5%). Type of series: functional.
For series [31], the system named is HepG2. Briefly: Induction of apoptosis in human HepG2 cells assessed as necrotic cells at IC50 concentration after 24 hrs by Annexin V-FITC/propidium iodide staining-based flow cytometric analysis (reference value: 1.14%). Type of series: functional.
For series [32], the system named is HT-29. Briefly: Induction of apoptosis in human HT-29 cells assessed as increase in cleaved PARP expression at IC50 concentration after 48 hrs by immunoblotting analysis. In kind it is functional, cell-based.
The subject of series [33] is HepG2. As to the kind of experiment: Induction of apoptosis in human HepG2 cells assessed as viable cells at IC50 concentration after 24 hrs by Annexin V-FITC/propidium iodide staining based flow cytometry (reference value: 98.9%). In kind it is functional.
The test system of series [34] is HepG2. As to the kind of experiment: Cytotoxicity against human HepG2 cells assessed as reduction in cell viability after 48 hrs by MTT assay. Type of series: functional, cell-based. The settings on record: HepG2, 48 h.
The subject of series [35] is HepG2. As to the kind of experiment: Down regulation of carbonic anhydrase 9 protein expression in human HepG2 cells by immunoblotting analysis. In kind it is functional, cell-based.
Series [36] relates to HepG2. Briefly: Down regulation of carbonic anhydrase 9 mRNA expression in human HepG2 cells by RT-PCR analysis. In kind it is functional, cell-based.
Series [37] deals with HepG2. Briefly: Down regulation of HIF1-alpha protein expression in human HepG2 cells by immunoblotting analysis. Type of series: functional, cell-based.
The subject of series [38] is HepG2. As to the kind of experiment: Induction of apoptosis in human HepG2 cells assessed as early apoptotic cells at IC50 concentration after 24 hrs by Annexin V-FITC/propidium iodide staining based flow cytometry (reference value: 0%). Type of series: functional.
The species named for series [39] is Homo sapiens. As to the kind of experiment: Selectivity index, ratio of IC50 for human carbonic anhydrase 2 using p-nitrophenyl acetate as substrate to IC50 for human carbonic anhydrase 5A using p-nitrophenyl acetate as substrate by.
The species entered for series [40] is Homo sapiens. As to the kind of experiment: Selectivity index, ratio of IC50 for human carbonic anhydrase 2 using p-nitrophenyl acetate as substrate to IC50 for human carbonic anhydrase 9 using p-nitrophenyl acetate as substrate.

Sequence of Albumin (P02768 whole entry): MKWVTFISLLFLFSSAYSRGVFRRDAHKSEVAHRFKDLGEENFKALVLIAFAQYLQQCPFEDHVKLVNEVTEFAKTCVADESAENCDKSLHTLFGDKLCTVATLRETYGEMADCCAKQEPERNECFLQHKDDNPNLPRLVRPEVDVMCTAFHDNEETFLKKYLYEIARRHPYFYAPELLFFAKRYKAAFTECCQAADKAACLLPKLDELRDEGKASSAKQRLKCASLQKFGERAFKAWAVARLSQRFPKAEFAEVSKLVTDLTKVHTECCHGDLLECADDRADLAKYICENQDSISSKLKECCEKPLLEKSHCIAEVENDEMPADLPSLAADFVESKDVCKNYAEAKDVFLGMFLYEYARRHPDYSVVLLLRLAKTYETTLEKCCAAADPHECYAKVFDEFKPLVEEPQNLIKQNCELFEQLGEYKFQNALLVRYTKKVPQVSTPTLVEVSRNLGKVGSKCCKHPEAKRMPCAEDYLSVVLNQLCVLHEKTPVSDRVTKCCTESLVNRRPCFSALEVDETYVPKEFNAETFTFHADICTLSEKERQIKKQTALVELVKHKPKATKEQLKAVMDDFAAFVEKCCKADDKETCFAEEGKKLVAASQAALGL

Broadly, the IC50 is the concentration at which inhibition is half-maximal. Consider `COc1cc(/C=C/C(=O)O)ccc1OCc1cn(-c2cccc(F)c2)nn1`, for which half-maximal inhibition in [1] (IC50) required 12.2 µM.

For the compound `COc1cc(/C=C/C(=O)O)ccc1OCc1cn(-c2cccc(C)c2)nn1`, in series [1], 5.24 µM corresponded to half-maximal inhibition (IC50).

`COc1ccc(-n2cc(COc3ccc(/C=C/C(=O)O)cc3OC)nn2)cc1` displayed an IC50 in [1] of 4.76 µM.

Consider `COc1cc(/C=C/C(=O)O)ccc1OCc1cn(-c2ccc(Cl)cc2)nn1`, for which the IC50 in [1] is 0.771 µM.

Compound `COc1cc(/C=C/C(=O)O)ccc1OCc1cn(-c2ccccc2C)nn1` had an IC50 in series [1] of 3.64 µM.

`COc1cccc(-n2cc(COc3ccc(/C=C/C(=O)O)cc3OC)nn2)c1`: in series [1], the 50% inhibitory concentration (IC50) is 1.96 µM.

As to `COc1cc(/C=C/C(=O)O)ccc1OCc1cn(-c2cccc(Cl)c2)nn1`, in [1], the IC50 turned out to be 1.37 µM.

Compound `COc1cc(/C=C/C(=O)O)ccc1OCc1cn(-c2ccc(C(=O)O)cc2)nn1` had an IC50 in [1] of 0.92 µM.

Turning to `COc1cc(/C=C/C(=O)O)ccc1OCc1cn(-c2ccc([N+](=O)[O-])cc2)nn1`, the IC50 in series [1] was 1.45 µM.

Consider `COc1cc(/C=C/C(=O)O)ccc1OCc1cn(-c2ccccc2OC)nn1`, for which, in [1], the midpoint of inhibition, the IC50, lay at 2.6 µM.

`COc1cc(/C=C/C(=O)O)ccc1OCc1cn(-c2ccc(C)cc2)nn1`: the IC50 in series [1] stood at 4.22 µM.

The Kd is the constant that tells how readily two partners part at equilibrium. `COc1cc(/C=C/C(=O)O)ccc1OCc1cn(-c2cccc([N+](=O)[O-])c2)nn1`: the Ka in series [2] was found to be 5.46 ×10⁴ /M. The Activity in series [3] was 10.5%; in series [5] it was 19.22%; in series [12] it was “Non-Toxic”; in series [14], 6.6%; in series [18], 2.29%; in series [20] it was 11.6%. The Activity in [27] worked out at 24.44%; in series [30], 75.6%; in series [31], 10.3%; in [33], 80.9%; in [38], 2.17%. The outcome in [4], in [6], in series [7], in series [8], in [9] and in series [15] was Active. For the same compound, the outcome in series [16], in [21], in series [22], in series [24], in series [25] and in series [26] was Active. Further, the result in series [28], in [29], in [32], in series [35], in [36] and in series [37] was Active. The IC50 came out at 0.024 µM in [1]; 1.99 µM in [11]; 8.44 µM in series [13]; 1.1 µM in series [17]; 11.2 µM in series [34]. Besides, the inhibition entry in [10] and in series [19] was “Active” throughout. Moreover, the Kd in [23] is 29 µM.

Regarding `COc1cc(/C=C/C(=O)O)ccc1OCc1cn(-c2ccc(F)cc2)nn1`, the IC50 in series [1] came to 7.64 µM.

`COc1cc(/C=C/C(=O)O)ccc1OCc1cn(-c2ccccc2Cl)nn1` yielded an IC50 in series [1] of 14.5 µM.

`COc1cc(/C=C/C(=O)O)ccc1OCc1cn(-c2ccccc2[N+](=O)[O-])nn1` returned an IC50 in series [1] of 2.44 µM.

Consider `COc1cc(/C=C/C(=O)O)ccc1OCc1cn(-c2ccccc2F)nn1`, for which the IC50 in series [1] came to 8.94 µM.

For `COc1cc(/C=C/C(=O)O)ccc1OCc1cn(-c2ccccc2)nn1`, the IC50 in series [1], in series [11] and in series [17] was greater than 20 µM each time.

In the case of `COc1cc(/C=C/C(=O)O)ccc1O` [FERULATE], the Ratio IC50 in series [39] and in [40] was 0.7 throughout. Also, the IC50 in series [1] was 9.39 µM; in series [11] it was 6.44 µM; in [17], 8.86 µM.
